Molecular target: T1, PDE4A5 (Rattus norvegicus, UniProt P54748)
T1 construct: targets used in the assays are full-length proteins (as opposed to simply the catalytic domain); expressed in transfected cells; host or cells: Schizosaccharomyces pombe, gene integrated at the cgs2 locus
T1 sequence (P54748 1-844): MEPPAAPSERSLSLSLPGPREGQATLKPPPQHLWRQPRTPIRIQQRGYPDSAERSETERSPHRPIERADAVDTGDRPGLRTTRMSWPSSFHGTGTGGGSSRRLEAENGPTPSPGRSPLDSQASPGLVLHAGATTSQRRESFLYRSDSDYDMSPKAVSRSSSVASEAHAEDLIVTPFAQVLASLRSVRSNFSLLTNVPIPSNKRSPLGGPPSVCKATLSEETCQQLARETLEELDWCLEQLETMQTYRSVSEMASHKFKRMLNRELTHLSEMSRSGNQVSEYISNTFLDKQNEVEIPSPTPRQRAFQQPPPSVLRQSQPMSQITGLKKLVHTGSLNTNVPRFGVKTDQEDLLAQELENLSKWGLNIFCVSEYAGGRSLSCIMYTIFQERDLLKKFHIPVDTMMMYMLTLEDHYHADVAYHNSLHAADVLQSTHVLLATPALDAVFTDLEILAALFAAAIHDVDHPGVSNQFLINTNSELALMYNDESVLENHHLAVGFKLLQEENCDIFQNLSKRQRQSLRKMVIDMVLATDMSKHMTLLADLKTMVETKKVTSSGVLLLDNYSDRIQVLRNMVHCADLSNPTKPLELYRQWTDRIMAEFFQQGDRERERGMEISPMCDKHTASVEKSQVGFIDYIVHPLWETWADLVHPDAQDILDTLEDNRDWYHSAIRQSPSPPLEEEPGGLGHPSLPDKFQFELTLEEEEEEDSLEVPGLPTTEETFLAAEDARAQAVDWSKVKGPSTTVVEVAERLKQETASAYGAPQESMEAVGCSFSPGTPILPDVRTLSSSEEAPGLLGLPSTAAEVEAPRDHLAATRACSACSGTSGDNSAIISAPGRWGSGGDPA
Test: Fission yeast 5FOA growth assay, strain expressing PDE4A5
Format: cell-based
Settings: 5FOA growth screen; for 1 Assay (20 uM), PDE 4A5: 20 uM compound; for 2 Assay (2 uM), PDE 4A5: 2 uM compound
Experimental: High throughput drug screens were carried out at the Broad Institute's Chemical Biology Program screening facility (Broad Institute, Cambridge, Mass.). Depending upon the strain, cultures were pregrown to exponential phase in EMM complete medium containing from 0.5 to 2.5 mM cAMP to repress fbp1-ura4 transcription. Cells were collected by centrifugation, resuspended in 5FOA medium, and 25 μl were transferred to 384-well microtiter dishes (untreated, with flat clear bottoms) that had been pre-filled with 25 μl 5FOA medium and pre-pinned with 100 nl of compounds (stock solutions were generally 10 mM) from a subset of the Prestwick Bioactive and the Microsource Spectrum compound libraries. Starting cell concentrations ranged from 0.5×10^5 to 4×10^5 cells/ml depending on the screening strain. […] Other positive control dishes contained 5 mM cAMP in the 5FOA medium. Cultures were grown for 48 hours at 30° C., sealed in an airtight container with moist paper towels to prevent evaporation. Optical densities (OD600) of cultures were measured using a microplate reader. Bioinformatic analysis of the results to determine composite Z scores was performed as previously described^30, 31.
Cells were pregrown in EMM medium [MP Biomedicals (Solon, OH), 3% glucose, filter-sterilized to avoid carmelization, which would introduce variability into the optical density of the medium] containing from 0 mM to 2.5 mM cAMP (or either 0.5 mM or 1.0 mM cGMP). This was to repress expression of the fbp1-ura4 reporter prior to exposure of cells to 5FOA medium. Cells were grown at 30° C. to exponential phase (approximately 10^7 cells/ml). Cells were collected by centrifugation and resuspended in 5FOA medium, and 25 μl were transferred to 384-well microtiter dishes (untreated, with flat clear bottoms) that had been pre-filled with 25 μl 5FOA medium and pre-pinned with 100 nl of compounds (stock solutions were generally 10 mM). Starting cell concentrations ranged from 0.5×10^5 to 4×10^5 cells/ml depending on the screening strain. […] Other positive control dishes contained 5 mM cAMP in the 5FOA medium for PDEs that lack appropriate control compounds. Cultures were grown for 48 hours at 30° C., sealed in an airtight container with moist paper towels to prevent evaporation. Optical densities (OD600) of cultures were measured using a microplate reader. Bioinformatic analysis of the results to determine composite Z scores was performed as previously described (1, 3).

| 1 Assay (20 uM), PDE 4A5 | 2 Assay (2 uM), PDE 4A5 | Structure (SMILES) |
| --- | --- | --- |
| 84.08 |  | Cc1ccc2c(c1)c1nc3ccccc3nc1n2C(C)C [Compound 41] |
| −0.06 ND ND ND ND |  | COC(=O)C1=C(C)N(c2ccccc2)/C(=C/c2cccs2)C1=O [2008, K19] |
| −0.06 | 13.66 | COC(=O)C1=C(C)N(C2CCCCC2)C(=O)/C1=C\c1cccs1 [Compound 22] |
| 1.80 ND ND ND ND |  | COC(=O)C1=C(C)N(c2ccccc2F)C(=O)/C1=C\c1cccc(OC)c1O [2008, C21] |
| 65.67 | 12.63 | COC(=O)C1=C(C)N(c2ccccc2Cl)C(=O)/C1=C\c1cccs1 [Compound 27] |
| 1.73 ND ND ND ND |  | COC(=O)C1=C(C)N(c2ccc(C(C)C)cc2)C(=O)/C1=C\c1cccs1 [2008, O19] |

— patent publication US20100179158A1, “INHIBITORS OF CYCLIC AMP PHOSPHODIESTERASES” (priority 2007, published 2010)
